Data from US20250100988A1, “PREPARATION OF A COMPOUND FOR THE TREATMENT OF GOUT OR HYPERURICEMIA” (Arthrosi Therapeutics, Inc., priority 2021, published 2025).

Assay: Solubility of test articles in HBSS assay buffer
Details: at all tested concentrations; highest tested concentration 10 μM
Protocol: Before the experiment, the medium was removed and the cells were washed twice with 100 μL of HBSS without Cl^−. Uptake experiments were carried out at 37±1° C. in 50 μL of HBSS without Cl^−, pH 7.4 containing the probe substrate (20 μM uric acid) and the test article (TA) or solvent.

## CCc1oc2ccccc2c1C(=O)c1cc(Br)c(O)c(Br)c1 [Benzbromarone]
  solubility in HBSS buffer: soluble

## [2H]c1c([2H])c([2H])c2c(C(=O)c3cc(Br)c(O)c(Br)c3)c(C(C)O)oc2c1[2H] (centres unmarked) [Compound 1, (3,5-dibromo-4-hydroxyphenyl)(2-(1-hydroxyethyl)benzofuran-3-yl-4,5,6,7-d4)methanone]
  solubility in HBSS buffer: soluble
